{"source": "paper PMC10604720", "about": "“Unraveling the Mechanism of Epichaperome Modulation by Zelavespib: Biochemical Insights on Target Occupancy and Extended Residence Time at the Site of Action” (Biomedicines, 2023)", "key": {"[1]": {"design": "method as in PMID 28808818", "settings": "human patients, no dependency on dose level; cited from earlier work"}, "[2]": {"test_system": "epichaperome", "assay": "Target occupancy by zelavespib using tracer [131I]-PU-AD and gamma counting in MDA-MB-468 tumors", "type": "in vivo, mouse", "settings": "for target occupancy: MDA-MB-468 tumor, 50 mg/kg; for target occupancy, accounting for background signal: background radioactivity of normal tissues (heart) subtracted", "description": "MDA-MB-468 (RRID:CVCL_0419) tumor xenografts were established on the forelimbs of female athymic nude mice (Hsd:Athymic Nude-Foxn1^nu; Envigo; 5 weeks old; RRID:MGI:5652489) by subcutaneous (s.c.) injection of 7 × 10^6 cells in a 300 µL cell suspension of a 1:1 v/v mixture of PBS with reconstituted basement membrane (BD Matrigel^TM, Collaborative Biomedical Products Inc., Bedford, MA, USA). Tumor progression was monitored using vernier calipers. For biodistribution studies, female athymic nude mice with MDA-MB-468 tumor xenografts (~200–300 mm^3) on the forelimbs were injected intravenously in the tail vein with zelavespib (50 mg/kg (PU-H71.HCl formulated in 10 mM Phosphate Buffer, pH = ~6.4)) at different time points (0 (co-injection), 6, 24, and 48 h) prior to tracer administration. At designated time points post-drug administration, mice were injected intravenously in the tail vein with 0.93–1.1 MBq (25–50 µCi) of [^131I]-PU-AD in 200 µL of 5% ethanol in saline. The activity in the syringe before and after administration was assayed in a dose calibrator (CRC-15R; Capintec, Florham Park, NJ, USA) to determine by difference the actual activity administered to each animal. Animals were euthanized by CO2 asphyxiation at 24 h post-administration of the radiolabeled [^131I]-PU-AD tracer, and organs, including tumor(s), were harvested and weighed. ^131I was measured in a 2480 WIZARD automatic gamma counter (PerkinElmer, Waltham, MA, USA) using a 260–430 keV energy window. Count data were background- and decay-corrected to the time of injection, and the percent injected dose per gram (%ID/g) for each tissue sample was calculated using a measured ^131I calibration factor to convert count rate to activity and the activity was normalized to the activity injected and the weighed mass of the sample to yield the activity concentration in %ID/g.\nThe drug could be trapped in non-tumor areas (i.e., stroma or necrotic tissue) or be intracellular but not target-bound. To test this notion and determine the percentile target occupied by each of these intratumoral concentrations of zelavespib, we performed studies in which tracer amounts (that is, non-pharmacologically perturbing amounts) of the radiolabeled epichaperome ligand [^131I]-PU-AD (~6 ng/g which is ~1/10,000 of the therapeutic zelavespib amount) were administered to mice intravenously 24 h prior to tumor zelavespib measurements (Figure 2a). The ^131I isotope has a half-life of 8 days, making it suitable for measurements of drugs with an extended tumor retention profile, such as that observed for zelavespib. It emits γ radiation and β particles; thus, γ-counting can be applied to detect and quantify the radioactive signal in tumors and tissues upon mouse sacrifice. Because both zelavespib and [^131I]-PU-AD bind to the same target, the epichaperome, the more zelavespib that is present in the tumor and is target-bound, the lower the radioactivity signal is in the tumor.\nFigure 3 Relationship between molar concentration and target engagement in MDA-MB-468 tumor-bearing mice. (a) Tumor molar concentrations of zelavespib experimentally determined by LC–MS/MS upon administration of single-dose 50 mg/kg zelavespib and sacrificing the mice at 30 h, 48 h, and 72 h post-zelavespib administration (n = 5 mice per time-point). Data are presented as means ± s.e.m., n = 5, one-way ANOVA with Dunnett’s post hoc. Controls: PU-24h, mice were injected 50 mg/kg zelavespib, and tumor concentrations of the drug were determined at 24 h post-injection using LC–MS/MS. Vehicle, mice were injected vehicle only. (b) Target engagement by zelavespib was determined by co-injection of zelavespib with a trace amount of [^131I]-PU-AD. Zelavespib was administered 6, 24, and 48 h prior to [^131I]-PU-AD. […]"}}}
{"smiles": "CC(C)NCCCn1c(Sc2cc3c(cc2I)OCO3)nc2c(N)ncnc21", "note": "[zelavespib]", "values": [{"measurement": "mean terminal half-life (T1/2) in the plasma", "setting": "[1]", "value": "8.4 ± 3.6", "unit": "h"}, {"measurement": "target occupancy", "setting": "[2]; 30 h post single 50 mg/kg i.v.", "value": 38.8, "unit": "%"}, {"measurement": "target occupancy, accounting for background signal", "setting": "[2]; 30 h post single 50 mg/kg i.v.", "value": 41.5, "unit": "%"}, {"measurement": "target occupancy", "setting": "[2]; 48 h post single 50 mg/kg i.v.", "value": 24.9, "unit": "%"}, {"measurement": "target occupancy, accounting for background signal", "setting": "[2]; 48 h post single 50 mg/kg i.v.", "value": 22.4, "unit": "%"}, {"measurement": "target occupancy, accounting for background signal", "setting": "[2]; 72 h post single 50 mg/kg i.v.", "value": 3.5, "unit": "%"}, {"measurement": "remaining intratumoral zelavespib that is target-bound", "setting": "[2]; 72 h post-injection", "value": "about 50%"}]}
